According to US10988466B2, “Heterocyclic derivatives useful as SHP2 inhibitors” (Jacobio Pharmaceuticals Co., Ltd., priority 2017, dated 2021):

Molecular target: T1, SHP2 (Homo sapiens, UniProt Q06124)
T1 sequence (Q06124 1-593): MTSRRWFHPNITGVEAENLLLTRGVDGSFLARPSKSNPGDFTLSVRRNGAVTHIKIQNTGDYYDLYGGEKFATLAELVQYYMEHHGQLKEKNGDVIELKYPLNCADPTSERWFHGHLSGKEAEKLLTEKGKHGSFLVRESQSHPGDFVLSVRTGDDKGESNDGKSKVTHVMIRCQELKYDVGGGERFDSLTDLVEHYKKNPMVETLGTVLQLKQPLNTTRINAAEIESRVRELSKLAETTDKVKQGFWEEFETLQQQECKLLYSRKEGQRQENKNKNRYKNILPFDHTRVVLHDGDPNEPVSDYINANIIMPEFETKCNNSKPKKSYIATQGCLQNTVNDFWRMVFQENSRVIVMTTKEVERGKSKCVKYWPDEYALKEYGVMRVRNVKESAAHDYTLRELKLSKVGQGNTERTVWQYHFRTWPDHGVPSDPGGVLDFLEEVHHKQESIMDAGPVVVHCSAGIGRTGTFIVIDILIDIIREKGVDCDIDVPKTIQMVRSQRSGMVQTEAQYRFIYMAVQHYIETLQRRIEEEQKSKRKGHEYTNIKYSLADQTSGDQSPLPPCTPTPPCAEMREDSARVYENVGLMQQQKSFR
Assay: biochemical
Details: read-out: SHP2 inhibition (%)@0.1 μM
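Note: compounds preincubated 30 min at room temperature in the assay mixture, activity referenced to a 0.5% (v/v) DMSO control taken as 100%, run in triplicate.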

Structure (SMILES) | inhibition at 0.1 µM
Nc1nc(N2CCC3(CC2)Cn2c(cccc2=O)C3N)cnc1Sc1ccnc(N)c1Cl (stereo not shown) [Example 141, 1-amino-1′-(6-amino-5-((2-amino-3-chloropyridin-4-yl)thio)pyrazin-2-yl)-3H-spiro[indolizine-2,4′-piperidin]-5(1H)-one] | 41%
N[C@@H]1c2cccnc2CC12CCN(c1cnc(Sc3cnccc3Cl)cn1)CC2 [Example 106, (S)-1′-(5-((4-chloropyridin-3-yl)thio)pyrazin-2-yl)-5,7-dihydrospiro [cyclopenta[b]pyridine-6,4′-piperidin]-5-amine] | 82%
N#Cc1ncccc1Sc1ncc(N2CCC3(CC2)Cc2ncccc2[C@H]3N)nc1N [Example 118, (S)-3-((3-amino-5-(5-amino-5,7-dihydrospiro [cyclopenta[b]pyridine-6,4′-piperidin]-1′-yl)pyrazin-2-yl)thio)picolinonitrile] | 81%
CC(=O)N1CC(F)(F)c2c(Sc3ncc(N4CCC5(CC4)c4ccccc4C[C@H]5N)nc3N)cccc21 [Example 6, (R)-1-(4-((3-amino-5-(2-amino-2,3-dihydrospiro[indene-1,4′-piperidin]-1′-yl)pyrazin-2-yl)thio)-3,3-difluoroindolin-1-yl)ethan-1-one] | 66%
Nc1cc(Sc2ncc(N3CCC4(CC3)Cc3ncccc3[C@H]4N)nc2N)c(Cl)cn1 [Example 113, (S)-1′-(6-amino-5-((2-amino-5-chloropyridin-4-yl)thio)pyrazin-2-yl)-5,7-dihydrospiro [cyclopenta[b]pyridine-6,4′-piperidin]-5-amine] | 80%
Nc1nc(N2CCC3(CC2)Cc2ccccc2[C@H]3N)cnc1Sc1ccnc(Cl)c1Cl [Example 66, (S)-1′-(6-amino-5-((2,3-dichloropyridin-4-yl)thio)pyrazin-2-yl)-1,3-dihydro-spiro[indene-2,4′-piperidin]-1-amine] | 72%
Nc1nc(N2CCC3(CC2)Cc2ccc(Br)cc2[C@H]3N)cnc1Sc1ccnc(N)c1Cl [Example 28, (S)-1′-(6-amino-5-((2-amino-3-chloropyridin-4-yl)thio)pyrazin-2-yl)-6-bromo-1,3-dihydro-spiro[indene-2,4′-piperidin]-1-amine] | 75%
Nc1cnccc1Sc1cnc(N2CCC3(CC2)Cc2ncccc2[C@H]3N)cn1 [Example 108, (S)-1′-(5-((3-amino-pyridin-4-yl)thio)pyrazin-2-yl)-5,7-dihydrospiro [cyclopenta[b]pyridine-6,4′-piperidin]-5-amine] | 71%
Nc1nc(N2CCC3(CC2)Cc2cc(F)c(F)c(F)c2[C@H]3N)cnc1Sc1ccnc(N)c1Cl [Example 61, (S)-1′-(6-amino-5-((2-amino-3-choropyridin-4-yl)thio)pyrazin-2-yl)-5,6,7-trifluoro-1,3-dihydro-spiro[indene-2,4′-piperidin]-1-amine] | 74%
CCOP(=O)(OCC)c1ccc2c(c1)[C@@H](N)C1(CCN(c3cnc(Sc4ccnc(N)c4Cl)c(N)n3)CC1)C2 [Example 90, diethyl (S)-(1-amino-1′-(6-amino-5-((2-amino-3-chloropyridin-4-yl)thio)pyrazin-2-yl)-1,3-dihydrospiro [indene-2,4′-piperidin]-6-yl) phosphonate] | 71%
N[C@@H]1c2cccnc2CC12CCN(c1cnc(Sc3ccnc(O)c3Cl)cn1)CC2 [Example 135, (S)-4-((5-(5-amino-5,7-dihydrospiro [cyclopenta[b]pyridine-6,4′-piperidin]-1′-yl)pyrazin-2-yl)thio)-3-chloropyridin-2-ol] | 86%
Nc1nc(N2CCC3(CC2)Cc2ccccc2[C@H]3N)cnc1Sc1cccc2[nH]cc(F)c12 [Example 157, (S)-1′-(6-amino-5-((3-fluoro-1H-indol-4-yl)thio)pyrazin-2-yl)-1,3-dihydrospiro[indene-2,4′-piperidin]-1-amine] | 78%
Nc1nc(N2CCC3(CC2)Cn2ccc(=O)cc2C3N)cnc1Sc1ccnc(N)c1Cl (stereo not shown) [Example 140, 1-amino-1′-(6-amino-5-((2-amino-3-chloropyridin-4-yl)thio)pyrazin-2-yl)-3H-spiro[indolizine-2,4′-piperidin]-7(1H)-one] | 14%
Nc1nc(N2CCC3(CC2)Cc2ncccc2[C@H]3N)cnc1Sc1cccnc1C(F)(F)F [Example 114, (S)-1′-(6-amino-5-((2-(trifluoro-methyl)pyridin-3-yl)thio)pyrazin-2-yl)-5,7-dihydrospiro [cyclopenta [b]pyridine-6,4′-piperidin]-5-amine] | 96%

Second part, the compound after the results:

inhibition at 0.1 µM | Structure (SMILES)
72% | COc1ccc2c(c1)CC1(CCN(c3cnc(Sc4ccnc(N)c4Cl)c(N)n3)CC1)C2=N [Example 143, 3-((2-amino-3-chloropyridin-4-yl)thio)-6-(1-imino-5-methoxy-1,3-dihydro-spiro[indene-2,4′-piperidin]-1′-yl)pyrazin-2-amine]
0% | Nc1nc(N2CCC3(CC2)Cc2cnccc2[C@@H]3N)cnc1Sc1ccnc(N)c1Cl [Example 65, (R)-1′-(6-amino-5-((2-amino-3-chloropyridin-4-yl)thio)pyrazin-2-yl)-5,7-dihydrospiro[cyclopenta [c]pyridine-6,4′-piperidin]-5-amine]
79% | N=C1c2csc(Br)c2CC12CCN(c1cnc(Sc3ccnc(N)c3Cl)c(N)n1)CC2 [Example 145, 3-((2-amino-3-chloropyridin-4-yl)thio)-6-(1-bromo-4-imino-4H,6H-spiro [cyclopenta[c]thiophene-5,4′-piperidin]-1′-yl)pyrazin-2-amine]
76% | Nc1nc(N2CCC3(CC2)Cc2ccc(-n4cccc4)cc2[C@H]3N)cnc1Sc1ccnc(N)c1Cl [Example 37, (S)-1′-(6-amino-5-((2-amino-3-chloropyridin-4-yl)thio)pyrazin-2-yl)-6-(1H-pyrrol-1-yl)-1,3-dihydro-spiro[indene-2,4′-piperidin]-1-amine]
85% | CN(C)c1nccc(Sc2cnc(N3CCC4(CC3)Cc3ccccc3[C@H]4N)cn2)c1Cl [Example 49, (S)-1′-(5-((3-chloro-2-(dimethylamino)pyridin-4-yl)thio)pyrazin-2-yl)-1,3-dihydrospiro[indene-2,4′-piperidin]-1-amine]
84% | Nc1cccc(Sc2ncc(N3CCC4(CC3)Cc3ccccc3[C@H]4N)nc2N)c1Cl [Example 53, (S)-1′-(6-amino-5-((3-amino-2-chlorophenyl)thio)pyrazin-2-yl)-1,3-dihydro spiro[2,4′-piperidin]-1-amine]
87% | Nc1nc(N2CCC3(CC2)Cc2ncccc2[C@H]3N)cnc1Sc1cc(Cl)ncc1C(F)(F)F [Example 120, (S)-1′-(6-amino-5-((2-chloro-5-(trifluoromethyl)pyridin-4-yl)thio)pyrazin-2-yl)-5,7-dihydrospiro [cyclopenta[b]pyridine-6,4′-piperidin]-5-amine]
78% | Nc1nccc(Sc2cnc(N3CCC4(CC3)c3ccccc3CC4N)cn2)c1Cl (stereo not shown) [Example 132, 1′-(5-((2-amino-3-chloropyridin-4-yl)thio)pyrazin-2-yl)-2,3-dihydrospiro[indene-1,4′-piperidin]-2-amine]
93% | CS(=O)(=O)Nc1ccc2c(c1)[C@@H](N)C1(CCN(c3cnc(Sc4ccnc(N)c4Cl)c(N)n3)CC1)C2 [Example 63, (S)-N-(1-amino-1′-(6-amino-5-((2-amino-3-chloropyridin-4-yl)thio)pyrazin-2-yl)-1,3-dihydrospiro [indene-2,4′-piperidin]-6-yl)methane-sulfonamide]
76% | CSc1ccc2c(c1)[C@@H](N)C1(CCN(c3cnc(Sc4ccnc(N)c4Cl)c(N)n3)CC1)C2 [Example 74, (S)-1′-(6-amino-5-((2-amino-3-chloropyridin-4-yl)thio)pyrazin-2-yl)-6-(methylthio)-1,3-dihydro-spiro[indene-2,4′-piperidin]-1-amine]
69% | COc1nccc(Sc2ncc(N3CCC4(CC3)Cc3ccccc3[C@H]4N)nc2N)c1Cl [Example 54, (S)-1′-(6-amino-5-((3-chloro-2-methoxypyridin-4-yl)thio)pyrazin-2-yl)-1,3-dihydrospiro [indene-2,4′-piperidin]-1-amine]
81% | Nc1cccc(Sc2ncc(N3CCC4(CC3)Cc3ncccc3[C@H]4N)nc2N)c1Cl [Example 98, (S)-1′-(6-amino-5-((3-amino-2-chlorophenyl)thio)pyrazin-2-yl)-5,7-dihydrospiro [cyclopenta[b]pyridine-6,4′-piperidin]-5-amine]
81% | Nc1nccc(Sc2cnc(N3CCC4(CC3)Cc3ccccc3[C@H]4N)cn2)c1Cl [Example 48, (S)-1′-(5-((2-amino-3-chloropyridin-4-yl)thio)pyrazin-2-yl)-1,3-dihydro-spiro[indene-2,4′-piperidin]-1-amine]
75% | N#Cc1cccc2c1CC1(CCN(c3cnc(Sc4ccnc(N)c4Cl)c(N)n3)CC1)[C@@H]2N [Example 16, (S)-1-amino-1′-(6-amino-5-((2-amino-3-chloropyridin-4-yl)thio)pyrazin-2-yl)-1,3-dihydrospiro [indene-2,4′-piperidine]-4-carbonitrile]
